According to patent US7053175B1, “Synthetic peptides useful in biological assays for detecting infections caused by group O HIV-1 viruses” (Bio-Rad Pasteur, priority 1997, dated 2006):
No end group written: not given here.

Tested on: sera from patients infected with group O HIV-1 retroviruses
Experiment: Immunoenzymatic test: Test No. 1 (immunoreactivity of peptides coated on microplates)
Assay type: binding, human
Design: key to ABSORBANCE: >: signal greater than the reading capacity of the spectrophotometer
Conditions: for ABSORBANCE: cyclized peptide 2 μg/ml
Protocol: The sera used ESS, DUR, VAU and HAD are sera from French patients infected with group O HIV-1 retroviruses. The other serum samples from patients infected with group O HIV-1 retroviruses were obtained by the Yaoundé Pasteur Centre in Cameroon and were serotyped group O according to the serological algorithm described in AIDS (1977), 11, pp 445-453.
The HIV-negative sera (n=48) were obtained from healthy volunteers.
The synthetic peptides used were dissolved in water at a concentration of 1 mg/ml (stock solution). For the solid phase sensitization step (coating), 110 μl of a solution at 2 μg/ml of each peptide (obtained by diluting the stock solution with 0.1 M carbonate buffer solution) were added to each well of the microtitre plates Microtiter™ (NUNC). After incubating overnight at room temperature, the microplates were first washed with a Tris-NaCl buffer solution pH 7.4 containing 0.1% of Tween® 20 and 0.001% sodium merthiolate, and then saturated with a PBS solution containing 0.5% of Régilait™ (dried skimmed milk). After aspirating the saturating solution, the plates were heated for 10 min at 50° C.
The serum samples were diluted 1/5 with a skimmed milk solution (citrate buffer supplemented with 0.01% of phenol red, 0.25% of chloroform and 0.25% of Kathon®), deposited in the wells of the plates and incubated for 30 min at 40° C.
After washing with a Tris-NaCl buffer solution pH 7.4 containing 0.1% of Tween® 20 and 0.001% of sodium merthiolate, 100 μl of a solution of conjugate consisting of horseradish peroxidase-labelled anti-human IgG and IgM goat antibodies, containing as preservative 0.01% of sodium merthiolate, in solution in a citrate buffer solution supplemented with 30% glycerol and 25% normal foetal calf serum, were added to each plate well and then the plates were incubated for 30 min at 40° C.
After washing with a Tris-NaCl buffer solution pH 7.4 containing 0.1% of Tween® 20 and 0.001% of sodium merthiolate, the colour was developed by adding, to each well, 100 μl of O-phenylenediamine in solution in hydrogen peroxide. The microplates were then incubated for 30 min at room temperature and in the dark. The coloured reaction was then stopped by addition of 100 μl of 4N sulphuric acid. The absorbance (A) was determined at 490 and 620 nm.
The relative absorbance (A490-A620) read in each well is proportional to the immunoreactivity of each peptide. It indicates the ability of each peptide to react with the biological sample with which the test is carried out. The cut-off value was determined as being an absorbance equal to 0.15. It corresponds to the mean of the negative values (n=48) plus 12 standard deviations.
The reactivity of the peptides of the invention (peptide No. 3 (4B), peptide No. 2 (3B) and peptide No. 1 (2B), all in cyclized form), was compared with that of two synthetic peptides having, as sequence, a portion of the natural sequence of the envelope (env) of the VAU isolate (group O HIV-1 retrovirus) and comprising an immunodominant epitope of gp41.
For the study, these peptides were used in cyclized form.

With “LLSSWGCKGRLVCYTSVQWNET [PEPTIDE No. 3 (4B)]” the ABSORBANCE (serum 134) was “>”, the ABSORBANCE (serum 402) was “>” and the ABSORBANCE (serum 625) was “>”. The ABSORBANCE (serum 1062) was “>”, the ABSORBANCE (serum 1105*) was 1.421 and the ABSORBANCE (serum 1581) was “>”. The ABSORBANCE (serum 1702) was “>”, the ABSORBANCE (serum 1754) was “>” and the ABSORBANCE (serum 2294) was “>”. For the same sequence, the ABSORBANCE (serum 2312) was “>”, the ABSORBANCE (serum 2313) was “>” and the ABSORBANCE (serum 2352) was “>”. For the same sequence, the ABSORBANCE (serum 2551) was “>”, the ABSORBANCE (serum 2700) was “>” and the ABSORBANCE (serum 3016) was “>”. For the same sequence, the ABSORBANCE (serum 3136) was “>”, the ABSORBANCE (serum 3235) was “>” and the ABSORBANCE (serum 3236) was “>”. The ABSORBANCE (serum 3302) was “>”, the ABSORBANCE (serum 3482) was 2.402 and the ABSORBANCE (serum 3529) was “>”. The ABSORBANCE (serum 3600*) was “>”, the ABSORBANCE (serum 3627*) was “>” and the ABSORBANCE (serum 3637) was “>”. The ABSORBANCE (serum 3653) was 1.352, the ABSORBANCE (serum 3771) was “>” and the ABSORBANCE (serum 3884*) was “>”. For the same sequence, the ABSORBANCE (serum 3891) was “>”, the ABSORBANCE (serum 3935) was “>” and the ABSORBANCE (serum 3945) was “>”. For the same sequence, the ABSORBANCE (serum 4021*) was 0.430, the ABSORBANCE (serum 4288*) was “>” and the ABSORBANCE (serum 4364) was “>”. The ABSORBANCE (serum 4434) was “>”, the ABSORBANCE (serum 4477) was “>” and the ABSORBANCE (serum 4489*) was “>”. The ABSORBANCE (serum 5149*) was “>”, the ABSORBANCE (serum 5164) was “>” and the ABSORBANCE (serum 5210) was “>”. The ABSORBANCE (serum 5270*) was “>”, the ABSORBANCE (serum 5373) was “>” and the ABSORBANCE (serum 5453) was 0.555. For the same sequence, the ABSORBANCE (serum 5766*) was “>”, the ABSORBANCE (serum 5931) was “>” and the ABSORBANCE (serum 5969*) was “>”. For the same sequence, the ABSORBANCE (serum 6111) was “>”, the ABSORBANCE (serum 6165) was “>” and the ABSORBANCE (serum 6198*) was “>”. The ABSORBANCE (serum 6295*) was 1.718, the ABSORBANCE (serum 6487) was “>” and the ABSORBANCE (serum 6512*) was 0.746. The ABSORBANCE (serum 6627) was “>”, the ABSORBANCE (serum 6689*) was 0.710 and the ABSORBANCE (serum 6697) was “>”. For the same sequence, the ABSORBANCE (serum 6782) was “>”, the ABSORBANCE (serum 6891) was “>” and the ABSORBANCE (serum 6976*) was “>”. The ABSORBANCE (serum 6998) was “>”, the ABSORBANCE (serum 7007) was 2.136 and the ABSORBANCE (serum 7120) was “>”. The ABSORBANCE (serum 7212) was “>”, the ABSORBANCE (serum 7258*) was “>” and the ABSORBANCE (serum 7297*) was “>”. The ABSORBANCE (serum 7439) was “>”, the ABSORBANCE (serum 7443) was “>” and the ABSORBANCE (serum DUR*) was “>”. For the same sequence, the ABSORBANCE (serum ESS*) was “>**”, the ABSORBANCE (serum HAD) was “>” and the ABSORBANCE (serum VAU*) was 1.342. The “immunoreactivity compared with the other peptides (in words)” value (summary of Table IV) was “best performance”.
In the case of “LLNLWGCKNRAICYTSVKWNKT (cysteine pairing not given here) [VAU 22 AA, reference compound]”, the ABSORBANCE (serum 134) was “>”, the ABSORBANCE (serum 402) was “>” and the ABSORBANCE (serum 625) was “>”. For the same sequence, the ABSORBANCE (serum 1062) was “>”, the ABSORBANCE (serum 1105*) was 0.099 and the ABSORBANCE (serum 1581) was 1.112. The ABSORBANCE (serum 1702) was “>”, the ABSORBANCE (serum 1754) was 1.263 and the ABSORBANCE (serum 2294) was “>”. The ABSORBANCE (serum 2312) was “>”, the ABSORBANCE (serum 2313) was “>” and the ABSORBANCE (serum 2352) was “>”. For the same sequence, the ABSORBANCE (serum 2551) was “>”, the ABSORBANCE (serum 2700) was “>” and the ABSORBANCE (serum 3016) was “>”. For the same sequence, the ABSORBANCE (serum 3136) was “>”, the ABSORBANCE (serum 3235) was “>” and the ABSORBANCE (serum 3236) was “>”. For the same sequence, the ABSORBANCE (serum 3302) was “>”, the ABSORBANCE (serum 3482) was “>” and the ABSORBANCE (serum 3529) was “>”. The ABSORBANCE (serum 3600*) was “>”, the ABSORBANCE (serum 3627*) was “>” and the ABSORBANCE (serum 3637) was 0.779. The ABSORBANCE (serum 3653) was 1.441, the ABSORBANCE (serum 3771) was “>” and the ABSORBANCE (serum 3884*) was “>”. For the same sequence, the ABSORBANCE (serum 3891) was “>”, the ABSORBANCE (serum 3935) was 0.138 and the ABSORBANCE (serum 3945) was “>”. For the same sequence, the ABSORBANCE (serum 4021*) was 0.050, the ABSORBANCE (serum 4288*) was 2.337 and the ABSORBANCE (serum 4364) was “>”. It also gave an ABSORBANCE (serum 4434) of 2.273, an ABSORBANCE (serum 4477) of 2.511 and an ABSORBANCE (serum 4489*) of 1.318. For the same sequence, the ABSORBANCE (serum 5149*) was “>”, the ABSORBANCE (serum 5164) was “>” and the ABSORBANCE (serum 5210) was “>”. For the same sequence, the ABSORBANCE (serum 5270*) was “>”, the ABSORBANCE (serum 5373) was 1.359 and the ABSORBANCE (serum 5453) was 1.267. The ABSORBANCE (serum 5766*) was “>”, the ABSORBANCE (serum 5931) was 0.202 and the ABSORBANCE (serum 5969*) was 2.491. The ABSORBANCE (serum 6111) was “>”, the ABSORBANCE (serum 6165) was “>” and the ABSORBANCE (serum 6198*) was “>”. It also gave an ABSORBANCE (serum 6295*) of 0.972, an ABSORBANCE (serum 6487) of 2.889 and an ABSORBANCE (serum 6512*) of 0.120. For the same sequence, the ABSORBANCE (serum 6627) was “>”, the ABSORBANCE (serum 6689*) was “>” and the ABSORBANCE (serum 6697) was “>”. For the same sequence, the ABSORBANCE (serum 6782) was 2.190, the ABSORBANCE (serum 6891) was 0.359 and the ABSORBANCE (serum 6976*) was “>”. The ABSORBANCE (serum 6998) was “>”, the ABSORBANCE (serum 7007) was “>” and the ABSORBANCE (serum 7120) was “>”. For the same sequence, the ABSORBANCE (serum 7212) was “>”, the ABSORBANCE (serum 7258*) was “>” and the ABSORBANCE (serum 7297*) was “>”. For the same sequence, the ABSORBANCE (serum 7439) was “>”, the ABSORBANCE (serum 7443) was 0.920 and the ABSORBANCE (serum DUR*) was 0.118. For the same sequence, the ABSORBANCE (serum ESS*) was “>”, the ABSORBANCE (serum HAD) was 0.789 and the ABSORBANCE (serum VAU*) was “>”.
